Data as given in patent publication US12643871B2, “Aryl formamide compound containing chiral sulfur oxide or salt thereof, preparation method, herbicidal composition and use thereof” (Qingdao Kingagroot Chemical Compound Co., Ltd., priority 2019, dated 2026).

Experiments:
[1] = system: Digitaria sanguinalis; assay: Comparison experiment (post-emergence) against racemate / S configuration; assay type: in vivo; conditions: 30 g/ha; 3-4 weeks after sowing, 4-5 leaf-stage of weed, 25DAA
[2] = system: Amaranthus retroflexus; assay: Weeding effect in post-emergence stage; assay type: in vivo; conditions: 250 g/ha; 2 leaf stage; 15 days after application; fresh weight control rate
Procedure, shortened: (§1)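 Reported levels reflect fresh weight growth control rate banded 0 (<5%) through 5 (>85%), averaged over three repetitions. Treatment: foliar spray of 2-leaf-stage greenhouse plants at 15 to 500 g/ha, with 1.5 liter/ha methyl oleate synergist; assessment 15 days after application.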

[3] = system: Digitaria sanguinalis; assay: Weeding effect in post-emergence stage; assay type: in vivo; conditions: 250 g/ha; 2 leaf stage; 15 days after application; fresh weight control rate
Procedure, shortened: as §1

[4] = system: Echinochloa crusgali; assay: Weeding effect in post-emergence stage; assay type: in vivo; conditions: 250 g/ha; 2 leaf stage; 15 days after application; fresh weight control rate
Procedure, shortened: as §1

[5] = system: Setaria viridis; assay: Weeding effect in post-emergence stage; assay type: in vivo; conditions: 250 g/ha; 2 leaf stage; 15 days after application; fresh weight control rate
Procedure, shortened: as §1

[6] = system: Abutilon theophrasti; assay: Weeding effect in post-emergence stage; assay type: in vivo; conditions: 250 g/ha; 2 leaf stage; 15 days after application; fresh weight control rate
Procedure, shortened: as §1

[7] = system: Rice(Longyang 16); assay: Comparison experiment (post-emergence), crop safety on direct seeding rice; assay type: in vivo
From the text: (§2) The above growth control rates are fresh weight control rates.
(§3) Experiment on weeding effect in post-emergence stage: monocotyledonous and dicotyledonous weed seeds (Descurainia sophia, Capsella bursa-pastoris, Galium aparine, Stellaria media, Lithospermum arvense, Rorippa indica, Alopecurus aequalis, Beckmannia syzigachne, Sclerochloa dura, Phleum paniculatum, Bromus japonicus, Aegilops tauschii, Phalaris arundinacea, Amaranthus retroflexus, Chenopodiaceae, Commelina communis, Sonchus arvensis, convolvulus arvensis, Cirsium setosum, Solanum nigrum, Acalypha australis, Digitaria sanguinalis, Echinochloa crusgalli, Setaria viridis, Setaria glauca, Leptochloa chinensis, Monochoria vaginalis, Sagittaria trifolia, Scirpus juncoides, Cyperus rotundus, Cyperus iria, Cyperus difformis, Fimbristylis, Portulaca oleracea, Xanthium sibiricum, Pharbitis nil) and major crop seeds (wheat, corn, rice, soybean, cotton, oilseed rape, millet, sorghum, potato, sesame, ricinus) were placed in plastic pots filled with soil, then covered with 0.5-2 cm of soil, allowed to grow in a good greenhouse environment. After 2 weeks of sowing, the test plants were treated in the 2 leaf stage. The tested compounds of the present invention were respectively dissolved in acetone, then added with Tween 80 and 1.5 liter/ha of emulsifiable concentrate of methyl oleate as synergist, diluted with a certain amount of water to obtain a solution with a certain concentration, and sprayed with a spray tower onto the plants. After the application, the plants were cultured for 15 days in the greenhouse, and then the experimental results of the weeding were counted. The doses of the used compounds were 500, 250, 125, 60, 30, 15 g/ha, and the averages were obtained by repeating for three times.
(§4) If there is no clear marker, the post-seedling test conditions are the same as above, and the experimental results are shown in Tables 4-7.
Longyang 16 is an important cultivated variety representative of long-grain fragrant rice in northeast China. Long-grain fragrant rice is sensitive to herbicides and prone to drug damage, especially HPPD herbicides such as mesotrione and benzobicylon. […] It was not consistent with the well-known structure-activity relationship that aryloxyphenoxypropionic acid herbicides and phenoxypropionic acid herbicides in effective form have high activity to weeds and heavy damage to crops, and in ineffective form have almost no activity.

[8] = system: Monochoria vaginalis; assay: Weed control effect evaluation in rice field; assay type: in vivo; conditions: 60 g/ha; rice field pot, 14 days after treatment; ALS-inhibitor resistant weed from Heilongjiang
From the text: (§5) The activity level criteria for harmful plant damage (i.e., growth control rate) are as follows: • Level 5: growth control rate is above 85%; • Level 4: growth control rate is greater than or equal to 60% and less than 85%; • Level 3: growth control rate is greater than or equal to 40% and less than 60%; • Level 2: growth control rate is greater than or equal to 20% and less than 40%; • Level 1: growth control rate is greater than or equal to 5% and less than 20%; • Level 0: growth control rate is less than 5%.
(§6) Rice field soil was loaded into a 1/1,000,000 ha pot. The seeds of Echinochloa crusgali, Scirpus juncoides, Bidens tripartita, Sagittaria trifolia, Monochoria vaginalis and Leptochloa chinensis were sowed and gently covered with soil, then left to stand still in greenhouse in the state of 0.5-1 cm of water storage. The tuber of Sagittaria trifolia was planted in the next day or 2 days later. It was kept at 3-4 cm of water storage thereafter. The weeds were treated by dripping the WP or SC water diluents prepared according to the common preparation method of the compounds of the present invention with pipette homogeneously to achieve specified effective amount when Echinochloa crusgali, Scirpus juncoides, Bidens tripartita, Monochoria vaginalis and Leptochloa chinensis reached 0.5 leaf stage and Sagittaria trifolia reached the time point of primary leaf stage.
(§7) The fertility condition of Echinochloa crusgali, Scirpus juncoides, Bidens tripartita, Leptochloa chinensis, Sagittaria trifolia and Monochoria vaginalis 14 days after the treatment of the compound of the invention and the fertility condition of rice 21 days after the treatment of the compound of the invention respectively with the naked eye. Evaluate the weed control effect with 0-5 activity standard level. Many compounds show excellent activity and selectivity.

[9] = system: Leptochloa chinensis; assay: Weed control effect evaluation in rice field; assay type: in vivo; conditions: 60 g/ha; rice field pot, 14 days after treatment
From the text: as §5, §6, §7

[10] = system: Sagittaria trifolia; assay: Weed control effect evaluation in rice field; assay type: in vivo; conditions: 60 g/ha; rice field pot, 14 days after treatment; ALS-inhibitor resistant weed from Heilongjiang
From the text: as §5, §6, §7

[11] = system: Echinochloa crusgali; assay: Weed control effect evaluation in rice field; assay type: in vivo; conditions: 60 g/ha; rice field pot, 14 days after treatment; ALS-inhibitor resistant weed from Heilongjiang
From the text: as §5, §6, §7

[12] = system: Leptochloa chinensis; assay: Comparison experiment (post-emergence) against racemate / S configuration; assay type: in vivo
From the text: as §2
as §3, with “After 2 weeks of sowing, the test plants were treated in the 2 leaf stage.” left out, “After the application, the plants were cultured for 15 days in the greenhouse, and then the experimental results of the weeding were counted. The doses of the used compounds were 500, 250, 125, 60, 30, 15 g/ha, and the averages were obtained by repeating for three times.” left out
as §4

[13] = system: Green Setaria viridis; assay: as above; assay type: in vivo; conditions: 3-4 weeks after sowing, 4-5 leaf-stage of weed
From the text: as §2
as §3, with “After 2 weeks of sowing, the test plants were treated in the 2 leaf stage.” left out, “After the application, the plants were cultured for 15 days in the greenhouse, and then the experimental results of the weeding were counted. The doses of the used compounds were 500, 250, 125, 60, 30, 15 g/ha, and the averages were obtained by repeating for three times.” left out
as §4

[14] = system: Abutilon theophrasti; assay: as above; assay type: in vivo; conditions: 30 g/ha; 3-4 weeks after sowing, 4-5 leaf-stage of weed, 25DAA
From the text: as §2
as §3, with “After 2 weeks of sowing, the test plants were treated in the 2 leaf stage.” left out, “After the application, the plants were cultured for 15 days in the greenhouse, and then the experimental results of the weeding were counted. The doses of the used compounds were 500, 250, 125, 60, 30, 15 g/ha, and the averages were obtained by repeating for three times.” left out
as §4

[15] = system: Rice; assay: Transplanted rice safety evaluation; assay type: in vivo, rice (japonica rice/Indica rice); conditions: 60 g/ha; transplanted 3 leaf stage rice, 21 days after treatment
From the text: as §5
In addition, the rice field soil that loaded into the 1/1,000,000 ha pot was leveled to keep water storage at 3-4 cm depth. The 3 leaf stage rice (japonica rice/Indica rice) was transplanted at 3 cm of transplanting depth the next day. The compound of the present invention was treated by the same way after 5 days of transplantation.
as §7

CCC[S@@+]([O-])c1c(C(F)(F)F)ccc(C(=O)Nc2nnc(C)o2)c1F [Compound 3]
Results of comparison experiment, Digitaria sanguinalis (30 g/ha) [1]: 100%
weeding effect in post-emergence stage, activity level (growth control rate), Amaranthus retroflexus [2]: 5 (Level 5: growth control rate is above 85%)
weeding effect in post-emergence stage, activity level (growth control rate), Digitaria sanguinalis [3]: 5 (Level 5: growth control rate is above 85%)
weeding effect in post-emergence stage, activity level (growth control rate), Echinochloa crusgali [4]: 5 (Level 5: growth control rate is above 85%)
weeding effect in post-emergence stage, activity level (growth control rate), Setaria viridis [5]: 5 (Level 5: growth control rate is above 85%)
weeding effect in post-emergence stage, activity level (growth control rate), Abutilon theophrasti [6]: 5 (Level 5: growth control rate is above 85%)
Results of comparison experiment, Rice(Longyang 16) (250 g/ha) ([7]; 250 g/ha, 1.5-2 leaf-stage of direct seeding rice variety Longyang 16, 25 DAA): 0%
Results of comparison experiment, Rice(Longyang 16) (500 g/ha) ([7]; 500 g/ha, 1.5-2 leaf-stage of direct seeding rice variety Longyang 16, 25 DAA): 0%
safety to rice (Longyang 16), in words ([7]; summary of Table 5): higher safety
Herbicidal effects of compounds, Monochoria vaginalis, 0-5 activity standard level [8]: 5 (Level 5: growth control rate is above 85%)
Herbicidal effects of compounds, Leptochloa chinensis, 0-5 activity standard level [9]: 5 (Level 5: growth control rate is above 85%)
Herbicidal effects of compounds, Sagittaria trifolia, 0-5 activity standard level [10]: 5 (Level 5: growth control rate is above 85%)
Herbicidal effects of compounds, Echinochloa crusgali, 0-5 activity standard level [11]: 5 (Level 5: growth control rate is above 85%)
Results of comparison experiment, Leptochloa chinensis (60 g/ha) ([12]; 60 g/ha, 3-4 weeks after sowing, 4-5 leaf-stage of weed, 25DAA): 85%
Results of comparison experiment, Leptochloa chinensis (125 g/ha) ([12]; 125 g/ha, 3-4 weeks after sowing, 4-5 leaf-stage of weed, 25 DAA (Table 5)): 100%
activity against key weeds such as Leptochloa chinensis, in words ([12]; summary of Table 5): better activity
Results of comparison experiment, Green Setaria viridis (30 g/ha) ([13]; 30 g/ha, 25 DAA (Table 5)): 75%
Results of comparison experiment, Green Setaria viridis (60 g/ha) ([13]; 60 g/ha, 25DAA): 100%
Results of comparison experiment, Abutilon theophrasti (30 g/ha) [14]: 100%
Herbicidal effects of compounds, Rice, 0-5 activity standard level [15]: 0 (Level 0: growth control rate is less than 5%)
